Drawing on the Kinase Knowledgebase extract (Sharma et al. 2016), this text covers IC50 for 48 molecules.

The target of one assay is EGFR (human) (UniProt P00533). The conditions noted are these: a431.
The target of assay [1] is EGFR (human), P00533 [WT].
The target in assay [2] is EGFR (human), P00533 [T790M].

pIC50: −log10 of the molar value.

Sequence of EGFR (human), P00533 [T790M] (P00533 whole entry T790M, looked up): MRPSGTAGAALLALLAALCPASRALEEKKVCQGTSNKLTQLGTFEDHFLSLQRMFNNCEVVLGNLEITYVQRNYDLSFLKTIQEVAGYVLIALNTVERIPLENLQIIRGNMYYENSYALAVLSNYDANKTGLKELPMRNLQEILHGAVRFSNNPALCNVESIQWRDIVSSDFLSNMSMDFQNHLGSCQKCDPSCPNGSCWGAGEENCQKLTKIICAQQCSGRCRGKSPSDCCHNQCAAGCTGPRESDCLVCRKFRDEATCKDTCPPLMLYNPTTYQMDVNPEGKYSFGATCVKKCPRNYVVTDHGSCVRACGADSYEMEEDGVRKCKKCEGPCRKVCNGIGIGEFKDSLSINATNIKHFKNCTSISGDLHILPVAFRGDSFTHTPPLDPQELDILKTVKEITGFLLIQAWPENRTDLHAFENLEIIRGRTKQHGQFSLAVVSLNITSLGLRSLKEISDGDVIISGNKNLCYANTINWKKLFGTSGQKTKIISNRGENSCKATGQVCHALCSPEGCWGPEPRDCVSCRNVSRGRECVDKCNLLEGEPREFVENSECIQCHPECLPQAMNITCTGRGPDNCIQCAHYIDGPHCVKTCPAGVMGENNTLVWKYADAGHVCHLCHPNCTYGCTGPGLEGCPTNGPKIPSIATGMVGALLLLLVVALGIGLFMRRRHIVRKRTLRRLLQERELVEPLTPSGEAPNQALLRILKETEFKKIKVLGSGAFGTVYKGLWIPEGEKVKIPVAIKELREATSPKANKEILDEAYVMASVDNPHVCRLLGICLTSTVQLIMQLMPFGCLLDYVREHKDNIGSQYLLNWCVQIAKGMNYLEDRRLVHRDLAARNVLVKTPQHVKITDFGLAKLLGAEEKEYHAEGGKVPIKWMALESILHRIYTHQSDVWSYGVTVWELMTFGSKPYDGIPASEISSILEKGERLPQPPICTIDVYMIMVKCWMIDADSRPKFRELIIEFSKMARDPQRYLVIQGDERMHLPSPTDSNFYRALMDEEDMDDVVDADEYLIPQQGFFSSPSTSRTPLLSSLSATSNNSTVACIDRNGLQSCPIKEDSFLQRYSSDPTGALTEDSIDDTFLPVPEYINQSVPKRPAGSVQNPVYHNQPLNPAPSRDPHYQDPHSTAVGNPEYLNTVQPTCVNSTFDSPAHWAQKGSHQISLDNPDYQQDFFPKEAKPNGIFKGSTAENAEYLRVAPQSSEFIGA
Sequence of EGFR (human) (P00533 whole entry, looked up): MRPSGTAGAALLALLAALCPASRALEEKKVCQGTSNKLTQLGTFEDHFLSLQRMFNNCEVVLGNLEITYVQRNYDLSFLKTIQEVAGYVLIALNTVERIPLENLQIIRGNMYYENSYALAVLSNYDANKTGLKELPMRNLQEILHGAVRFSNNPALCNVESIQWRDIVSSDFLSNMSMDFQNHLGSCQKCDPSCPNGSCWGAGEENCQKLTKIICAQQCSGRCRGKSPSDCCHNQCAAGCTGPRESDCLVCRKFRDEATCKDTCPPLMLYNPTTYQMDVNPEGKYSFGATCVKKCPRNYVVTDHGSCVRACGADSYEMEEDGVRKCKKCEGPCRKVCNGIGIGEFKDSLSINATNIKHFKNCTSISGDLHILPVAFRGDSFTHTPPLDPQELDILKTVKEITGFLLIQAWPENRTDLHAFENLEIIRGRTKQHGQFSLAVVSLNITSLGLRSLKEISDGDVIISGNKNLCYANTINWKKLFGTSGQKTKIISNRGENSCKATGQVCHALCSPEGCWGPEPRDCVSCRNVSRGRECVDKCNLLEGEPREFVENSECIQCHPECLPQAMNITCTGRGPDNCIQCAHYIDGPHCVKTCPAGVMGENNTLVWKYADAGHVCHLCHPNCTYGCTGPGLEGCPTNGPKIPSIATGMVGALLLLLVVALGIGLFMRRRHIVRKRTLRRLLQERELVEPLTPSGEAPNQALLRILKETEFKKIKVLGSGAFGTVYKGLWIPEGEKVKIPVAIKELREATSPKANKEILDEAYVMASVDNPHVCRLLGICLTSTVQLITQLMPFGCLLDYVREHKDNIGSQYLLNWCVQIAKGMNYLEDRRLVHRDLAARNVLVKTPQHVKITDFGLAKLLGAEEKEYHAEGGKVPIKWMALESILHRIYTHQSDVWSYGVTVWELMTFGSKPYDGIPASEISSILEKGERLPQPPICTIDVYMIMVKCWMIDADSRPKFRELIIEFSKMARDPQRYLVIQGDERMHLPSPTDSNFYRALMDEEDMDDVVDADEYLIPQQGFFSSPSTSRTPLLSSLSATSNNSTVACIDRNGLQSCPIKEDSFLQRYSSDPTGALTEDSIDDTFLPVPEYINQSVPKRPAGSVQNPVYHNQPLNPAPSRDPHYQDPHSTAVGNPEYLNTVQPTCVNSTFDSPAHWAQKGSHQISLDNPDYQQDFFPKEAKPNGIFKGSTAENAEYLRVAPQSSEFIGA
Sequence of EGFR (human), P00533 [WT] (P00533 whole entry, looked up): as above

`CN(C)C/C=C/C(=O)NCc1coc(-c2c(N)ncnc2Nc2ccc(F)c(Cl)c2)n1`: the negative-log IC50 (pIC50) (commonly −log10 of the IC50, conventionally taken in molar units) against EGFR (human) is 7.06.

Regarding `C=CC(=O)NCc1coc(-c2c(NC(C)=O)ncnc2Nc2ccc(Oc3cc(C(F)(F)F)nn3C)c(Cl)c2)n1`, the negative logarithm of the IC50 (pIC50) is 7.34 in assay [1] and 6.38 in assay [2].

As to `C=CC(=O)N1CCCC1c1cc(-c2cncnc2Nc2ccc(OCc3cccc(F)c3)c(Cl)c2)on1` (centres undefined), the pIC50 against EGFR (human) was 6.88.

`C=CC(=O)N1CCC(c2cc(-c3cncnc3Nc3ccc(OCc4cccc(F)c4)c(Cl)c3)on2)CC1` had a pIC50 on EGFR (human) of 5.51.

In the case of `C=CC(=O)NCc1coc(-c2c(N)ncnc2Nc2ccc(OCc3ccccn3)cc2F)n1`, the pIC50 in assay [1] is 8.07; in assay [2], 6.77.

With `C=C(CN(C)C)C(=O)NCc1cc(-c2cncnc2Nc2ccc(OCc3ccccn3)c(Cl)c2)on1`, the pIC50 in assay [1] is 8.06; against EGFR (human) it was 9.00; in assay [2] it was 7.91.

Regarding `C=CC(=O)NCc1coc(-c2c(N)ncnc2Nc2ccc(Oc3ccccc3)c(Cl)c2)n1`, the figures for the pIC50 in assay [1] and in assay [2] were 8.15 and 8.48, respectively.

`Nc1ncnc(Nc2ccc(OCc3ccccn3)c(Cl)c2)c1-c1nc(CNC(=O)CCO)co1`: on EGFR (human), the negative logarithm of the IC50 (pIC50) was 6.86.

At EGFR (human), `C=CC(=O)NCc1cc(-c2cncnc2Nc2ccc(Br)c(Cl)c2F)on1` gave a pIC50 of 7.19.

`C=CC(=O)NCc1coc(-c2c(NC(C)=O)ncnc2Nc2ccc(OCc3ccccn3)c(Cl)c2)n1`: the pIC50 against EGFR (human) is 7.85.

Molecule `C=CC(=O)NCc1coc(-c2cncnc2Nc2ccc(F)c(Cl)c2)n1` had a pIC50 against EGFR (human) of 6.36.

`C=CC(=O)NCc1coc(-c2c(N)ncnc2Nc2ccc(Oc3ccccn3)c(Cl)c2)n1`: the pIC50 is 8.38 in assay [1] and 7.80 in assay [2].

As to `C=CC(=O)NCc1coc(-c2c(N)ncnc2Nc2ccc(Oc3ccnn3C)c(Cl)c2)n1`, the pIC50 in assay [1] was 8.08; at EGFR (human), 8.08; in assay [2], 6.90.

In the case of `C=CC(=O)NCc1coc(-c2c(N)ncnc2Nc2ccc(F)c(Cl)c2)n1`, the pIC50 in assay [2] is 7.30.

In turn, `C=C(CN1CCN(C)CC1)C(=O)NCc1cc(-c2cncnc2Nc2ccc(OCc3ccccn3)c(Cl)c2)on1` had a negative-log IC50 (pIC50) on EGFR (human) of 6.51.

Regarding `C=C(CN(C)C)C(=O)NCc1coc(-c2c(N)ncnc2Nc2ccc(Oc3ccc(C)nc3)c(C)c2)n1`, the pIC50 on EGFR (human) is 6.45.

`C=CC(=O)N1CCCC(c2cc(-c3cncnc3Nc3ccc(OCc4cccc(F)c4)c(Cl)c3)on2)C1` (centres undefined) gave a negative-log IC50 (pIC50) against EGFR (human) of 5.98.

At EGFR (human), `C=C(CS(C)(=O)=O)C(=O)NCc1cc(-c2cncnc2Nc2ccc(OCc3ccccn3)c(Cl)c2)on1` gave a negative logarithm of the IC50 (pIC50) of 6.54.

As for `C=CC(=O)NCc1coc(-c2cncnc2Nc2ccc(OCc3ccccn3)c(Cl)c2)n1`, the pIC50 was 8.41 in assay [1] and 7.87 in assay [2].

As for `C=C(CN(C)C)C(=O)NCc1coc(-c2cncnc2Nc2ccc(OCc3ccccn3)c(Cl)c2)n1`, the negative logarithm of the IC50 (pIC50) in assay [1] is 8.46; at EGFR (human), 6.50; in assay [2] it was 8.47.

`CN(C)C/C=C/C(=O)NCc1cc(-c2cncnc2Nc2ccc(OCc3cccc(F)c3)c(Cl)c2)on1` showed a pIC50 against EGFR (human) of 6.95.

For the molecule `CN(C)C/C=C/C(=O)NCc1coc(-c2cncnc2Nc2ccc(OCc3ccccn3)c(Cl)c2)n1`, the pIC50 in assay [1] is 8.35; at EGFR (human), 6.92; in assay [2] it was 6.81.

On EGFR (human), `C=C(CN1CCCC1)C(=O)NCc1cc(-c2cncnc2Nc2ccc(OCc3ccccn3)c(Cl)c2)on1` gave a pIC50 of 6.58.

On EGFR (human), `CN(C)C/C=C/C(=O)NCc1coc(-c2c(N)ncnc2Nc2ccc(Oc3ccccc3)c(Cl)c2)n1` gave a pIC50 of 7.11.

On to `COCCC(=O)NCc1coc(-c2c(N)ncnc2Nc2ccc(Oc3ccccc3F)c(Cl)c2)n1`, for which the negative-log IC50 (pIC50) against EGFR (human) is 6.54.

`C=CC(=O)NCc1coc(-c2c(N)ncnc2Nc2ccc(Oc3cccnc3)c(Cl)c2)n1`: the pIC50 in assay [2] is 7.66.

On EGFR (human), `Nc1ncnc(Nc2ccc(Oc3ccccc3F)c(Cl)c2)c1-c1nc(CNC(=O)CCO)co1` showed a pIC50 of 6.08.

The molecule `Cc1ccc(Oc2ccc(Nc3ncnc(N)c3-c3nc(CNC(=O)/C=C/CN(C)C)co3)cc2C)cn1` gave a negative-log IC50 (pIC50) against EGFR (human) of 6.49.

On to `C=CC(=O)N(C)Cc1cc(-c2cncnc2Nc2ccc(OCc3cccc(F)c3)c(Cl)c2)on1`, for which the pIC50 on EGFR (human) was 7.16.

Turning to `CN(C)C/C=C/C(=O)NCc1cc(-c2cncnc2Nc2ccc(OCc3ccccn3)c(Cl)c2)on1`, the pIC50 against EGFR (human) is 8.30.

At EGFR (human), `O=C(/C=C\CO)NCc1cc(-c2cncnc2Nc2ccc(OCc3ccccn3)c(Cl)c2)on1` gave a pIC50 of 6.21.

In turn, `C=CC(=O)NCc1coc(-c2c(N)ncnc2Nc2ccc(F)c(C)c2)n1` gave a pIC50 at EGFR (human) of 7.04.

`C=CC(=O)NCC1COC(c2c(N)ncnc2Nc2ccc(OCc3ccccn3)c(Cl)c2)=N1` (centres undefined) had a pIC50 at EGFR (human) of 6.89.

`C=C(CN(CC)CC)C(=O)NCc1cc(-c2cncnc2Nc2ccc(OCc3ccccn3)c(Cl)c2)on1` gave a pIC50 against EGFR (human) of 6.41.

Turning to `C=C(CN(C)C)C(=O)NCc1coc(-c2c(N)ncnc2Nc2ccc(OCc3ccccn3)c(Cl)c2)n1`, the pIC50 was 8.49 in assay [1], 6.72 on EGFR (human) and 8.60 in assay [2].

Turning to `C=C(CN(C)C)C(=O)NCc1coc(-c2c(N)ncnc2Nc2ccc(F)c(Cl)c2)n1`, the results for the pIC50 (on EGFR (human); in assay [2]) were 7.59 and 8.16, respectively.

Consider `C=CC(=O)NCc1cc(-c2cncnc2Nc2ccc(OCc3cccc(F)c3)c(Cl)c2)on1`, for which the negative-log IC50 (pIC50) was 7.99 in assay [1], 7.10 against EGFR (human) and 7.39 in assay [2].

On EGFR (human), `Nc1ncnc(Nc2ccc(Oc3ccccc3F)c(Cl)c2)c1-c1nc(CNC(=O)CO)co1` gave a pIC50 of 6.80.

`C=C(CN(C)C)C(=O)NCc1coc(-c2cncnc2Nc2ccc(F)c(Cl)c2)n1`: at EGFR (human), the pIC50 was 7.01.

For the molecule `CN(C)C/C=C/C(=O)NCc1coc(-c2c(N)ncnc2Nc2ccc(OCc3ccccn3)c(Cl)c2)n1`, the pIC50 in assay [1] was 8.21; on EGFR (human) it was 7.54; in assay [2] it was 6.79.

Consider `C=CC(=O)NCc1coc(-c2c(N)ncnc2Nc2ccc(Oc3cc(Cl)ccc3Cl)c(Cl)c2)n1`, for which the figures for the pIC50 in assay [1] and in assay [2] were 8.41 and 8.49, respectively.

`C=CC(=O)NCc1coc(-c2c(N)ncnc2Nc2ccc(Sc3nccn3C)c(Cl)c2)n1` showed a pIC50 on EGFR (human) of 6.37.

For `C=CC(=O)NCCc1cc(-c2cncnc2Nc2ccc(OCc3cccc(F)c3)c(Cl)c2)on1`, on EGFR (human), the pIC50 was 6.30.

On to `C=CC(=O)NCc1coc(-c2c(N)ncnc2Nc2ccc(OCc3cccc(F)c3)c(Cl)c2)n1`, for which the pIC50 in assay [1] was 7.56; in assay [2] it was 7.72.

For the molecule `C=CC(=O)NCc1coc(-c2c(N)ncnc2Nc2ccc(OCc3ccccn3)c(F)c2)n1`, the results for the pIC50 in assay [1] and in assay [2] were 8.31 and 6.89, respectively.

As to `C=CC(=O)NCc1cc(-c2cncnc2Nc2ccc(OCc3ccccn3)c(Cl)c2)on1`, the negative logarithm of the IC50 (pIC50) is 8.04 in assay [1], 8.70 against EGFR (human) and 7.00 in assay [2].

As to `C=C(CN1CCOCC1)C(=O)NCc1cc(-c2cncnc2Nc2ccc(OCc3ccccn3)c(Cl)c2)on1`, the pIC50 in assay [1] is 7.67; against EGFR (human), 6.74.

`C=CC(=O)NCc1coc(-c2c(N)ncnc2Nc2ccc(Oc3ccc(C)nc3)c(C)c2)n1` showed a pIC50 in assay [2] of 6.97.
